Test results as given in PubChem BioAssay AID1919 (The Scripps Research Institute Molecular Screening Center, 2009).
The source made the active and inactive calls.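 Rule for the calls: active = IC50 against the VIM-2 bacterial beta-lactamase enzyme at or below a set limit; inactive = IC50 above that set limit.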

What follows are compounds tested against VIM-2 metallo-beta-lactamase (Pseudomonas aeruginosa) (UniProt Q932Y6) (assay: concentration-dependent VIM-2 enzyme inhibition – biochemical, epi-absorbance readout, selective inhibitors, dose response (AID 1919)). Settings: purified VIM-2, nitrocefin hydrolysis, epi-absorbance fluorescence.

Compound | IC50
O=Cc1c(NCc2ccc(Cl)cc2)c2ccccc2[nH]c1=O | inactive
COc1ccc(-c2n[nH]c(=S)n2-c2ccc3c(c2)OCCO3)cc1OC | inactive
CC(=O)c1ccc(-c2ccc(Cn3c(C)nc4cc(N)c(C)nc43)cc2)cc1 | > 59.6 µM (inactive)
COCC(=O)Nc1nnc(SCC(=O)NCc2cccs2)s1 | 9.67 µM
COc1ccc2[nH]c(C(=O)O)c(CCN3C(=O)c4ccc(C(=O)O)cc4C3=O)c2c1 | 1.43 µM
Cc1n[nH]c(C)c1CCCCOc1ccc([N+](=O)[O-])cc1 | inactive
CC(C)Cn1c(-c2ccco2)n[nH]c1=S | inactive
CCOC(=O)N=S(N)(=O)c1ccccc1 (stereo not drawn) | inactive
S=c1[nH]nc(C2CC2)n1Cc1ccccc1 | 3.35 µM
CCCCc1cc(=O)oc2c3c(cc(OCC(=O)N4CCC[C@H]4C(=O)O)c12)OC(C)(C)CC3 | inactive
O=C(CSc1nnc(NC(=O)c2ccccc2F)s1)NCc1ccc(F)cc1 | inactive
O=C1Nc2cc(C(=O)NCCCN3CCOCC3)ccc2S/C1=C/c1ccccc1F | inactive
O=c1[nH]c2c(s1)C(c1cccnc1)C1C3CCC(C3)C1S2 (stereo not drawn) | 0.0544 µM
COc1cccc(-n2c(CNC(=O)OC(C)(C)C)n[nH]c2=S)c1 | inactive
COc1cc2c(cc1OC)C(C)N(C(=O)c1nccnc1C(=O)O)CC2 (stereo not drawn) | inactive
O=C(CSc1nnc(NC(=O)c2cccc(F)c2)s1)NCc1ccco1 | > 59.6 µM (inactive)
S=c1[nH]nc(Cn2c(-c3ccccn3)nc3ccccc32)n1-c1ccc2c(c1)OCCO2 | inactive
O=C(CSc1nnc(NC(=O)c2ccccc2)s1)NCc1ccco1 | > 59.6 µM (inactive)
CCN(CC)C(=O)CSc1nc2ccc(NC(=O)CSc3nccn3C)cc2s1 | inactive
CCOC(=O)c1[nH]c(C(=O)O)c(CCC(=O)OC)c1C | inactive
C=CCn1c(C2CC2)n[nH]c1=S | inactive
CC(C)(C)c1ccc(-c2n[nH]c(=S)n2CCCN2CCOCC2)cc1 | inactive
S=c1[nH]nc(-c2ccccc2)n1C1C=CCCC1 (stereo not drawn) | inactive
O=P(O)(O)c1ccccc1OCc1ccccc1 | 2.44 µM
Cc1ccc(-c2c(C(=O)O)c(C(=O)O)c3n2CSC3)cc1 | 9.91 µM
S=c1[nH]nc(-c2ccccc2)n1Cc1ccccc1 | inactive

Compound | IC50
Cc1cc(C(=O)OCC(=O)NC(=O)c2cccn2C)c2ccccc2n1 | > 59.6 µM (inactive)
O=C(CSc1nnc(NC(=O)c2c(F)cccc2F)s1)NCc1ccccc1 | 9.26 µM
Cc1cc(=O)oc2c3c(cc(OCC(=O)N[C@@H](Cc4ccccc4)C(=O)O)c12)OC(C)(C)CC3 | inactive
Fc1ccccc1-c1n[nH]c(=S)n1Cc1ccccc1 | inactive
Cc1cc(OCc2cc(C(=O)O)oc2C)c2c3c(c(=O)oc2c1)CCCC3 | 1.49 µM
O=C(CCN1C(=O)/C(=C/c2ccccc2F)SC1=S)NCCCn1ccnc1 | 6.45 µM
COc1ccccc1C(=O)Nc1nnc(SCC(=O)NCc2ccco2)s1 | 6.48 µM
O=C(CSc1nnc(NC(=O)c2cc(Br)ccc2Cl)s1)NCC1CCCO1 (stereo not drawn) | inactive
Cc1cccc(C(=O)Nc2nnc(SCC(=O)NCc3ccco3)s2)c1 | > 59.6 µM (inactive)
O=P(O)(O)c1ccccc1OCCCCCOc1ccccc1P(=O)(O)O | 2.4 µM
S=c1[nH]nc(-c2cccs2)n1C1CCCCC1 | 6.69 µM
S=c1[nH]nc(C2CC2)n1Cc1ccco1 | 9.32 µM
CCCc1cc(=O)oc2c3c(cc(OCC(=O)N4CCC[C@H]4C(=O)O)c12)OC(C)(C)CC3 | 6.62 µM
O=C(CSc1nnc(NC(=O)c2ccccc2[N+](=O)[O-])s1)NCc1ccco1 | 6.93 µM
CC(C)(C)C(=O)Nc1nnc(CSCc2ccccc2F)s1 | 4.99 µM
CSc1nc(SCC(=O)O)c2c3c(sc2n1)COC(C)(C)C3 | inactive
Cc1cc(=O)oc2c3c(cc(OCC(=O)N4CCC[C@H]4C(=O)O)c12)OC(C)(C)CC3 | inactive
COCC(C)NC(=O)c1cc2cccc([N+](=O)[O-])c2[nH]1 (stereo not drawn) | inactive
CC(C)(C)C(=O)Nc1nnc(SCC(=O)NCc2cccs2)s1 | 2.62 µM
O=C(O)C(NC(=O)c1ccccc1)=C(Cl)Cl | inactive
Cc1c(C)c2c(OCC(=O)N3CCC[C@H]3C(=O)O)cc3c(c2oc1=O)CCC(C)(C)O3 | 1.73 µM
O=C(O)C1Sc2[nH]c(=O)sc2C2c3cc(Cl)ccc3OC(=O)C12 (stereo not drawn) | > 59.6 µM (inactive)
CCCCn1c(-c2sccc2C)n[nH]c1=S | 4.73 µM
CCCCn1c(-c2nn(C)cc2Cl)n[nH]c1=S | 4.2 µM
Cn1c(-c2sccc2OCc2ccccc2)n[nH]c1=S | 5.45 µM
COc1ccc(-c2cc(C(F)(F)F)nc(N3CCN(C)CC3)n2)cc1 | > 59.6 µM (inactive)

Compound | IC50
Cc1cc(OCC(=O)N2CCC[C@@H]2C(=O)O)c2c(C)c(C)c(=O)oc2c1 | inactive
Cc1c(Cl)c(-c2n[nH]c(=S)n2-c2ccc(F)cc2)nn1C | inactive
O=C(O)c1ccccc1C(=O)c1cccc2ccccc12 | inactive
Cc1ccccc1C(=O)Nc1nnc(SCC(=O)NCc2ccco2)s1 | 3.01 µM
O=C1Nc2cc(C(=O)N3CCC(N4CCCCC4)CC3)ccc2S/C1=C\c1ccccc1 | inactive
O=C(O)CC/C(=C\c1cc([N+](=O)[O-])ccc1Cl)c1nc2ccccc2s1 | inactive
C=C(c1cccc2ccccc12)P(=O)(O)O | 6.81 µM
NC(=O)SCC(=O)Nc1ccccc1C(=O)O | inactive
Cc1cccc(-n2c(C)n[nH]c2=S)c1C | > 59.6 µM (inactive)
CC1=C(C(=O)O)N2C(=O)C(NC(=O)c3nn(C)cc3[N+](=O)[O-])C2SC1 (stereo not drawn) | inactive
CCc1cc(=O)oc2c(C)c(OCC(=O)N3CCC[C@@H]3C(=O)O)ccc12 | inactive
O=C(CSc1nnc(NC(=O)C2CC2)s1)NCc1ccccc1Cl | inactive
CC1CCCCC1n1c(-c2cccnc2)n[nH]c1=S (stereo not drawn) | inactive
CCCCn1c(-c2nn(C)c(C)c2Cl)n[nH]c1=S | 5.37 µM
O=C(O)c1[nH]c2ccc(Cl)cc2c1CCN1C(=O)c2ccccc2C1=O | 1.29 µM
O=c1[nH]c(SCc2n[nH]c(=S)n2-c2ccccc2)nc2sc3c(c12)CCC3 | > 59.6 µM (inactive)
O=C(O)c1[nH]c2ccc(Br)cc2c1CCN1C(=O)c2cccc([N+](=O)[O-])c2C1=O | 1.98 µM
O=C(O)Cn1cccc1C(=O)c1ccccc1 | inactive
CCCCn1c(-c2ccoc2C)n[nH]c1=S | inactive
Cc1ccc(-c2n[nH]c(=S)n2-c2ccccc2)cc1 | > 59.6 µM (inactive)
Cc1ccc(S(=O)(=O)n2[nH]c(=O)cc2NC(=O)c2cccs2)cc1 | 0.453 µM
O=C(c1ccco1)N1N=C(c2ccc(Cl)cc2)CC1c1ccco1 (stereo not drawn) | 7.31 µM
CCCc1cc(=O)oc2c3c(cc(OCC(=O)N[C@@H](C)C(=O)O)c12)OC(C)(C)CC3 | inactive
COc1ccccc1-n1c(-c2ccco2)n[nH]c1=S | inactive
S=c1[nH]nc(-c2ccc3ccccc3n2)n1-c1ccc2c(c1)OCCO2 | inactive
O=C(O)c1ccccc1Sc1ncnc2sc3c(c12)CCC3 | inactive

Compound | IC50
S=c1[nH]nc(-c2ccco2)n1-c1cccc2ccccc12 | inactive
Cc1c(OCC(=O)N2CCC[C@@H]2C(=O)O)ccc2c3c(c(=O)oc12)CCC3 | inactive
CC(C)(C)c1ccc(COc2ccsc2C(=O)O)cc1 | inactive
Cc1cccc(C2c3[nH]c4ccccc4c3CCN2C(=O)c2cc(CC(C)C)[nH]c(=O)n2)n1 (stereo not drawn) | 7.93 µM
CSC[C@H](NC(=O)COc1cc2c(c3oc(=O)c(C)c(C)c13)CCC(C)(C)O2)C(=O)O | inactive
Cc1ccc(-n2c(-c3nn(C)c(C)c3Cl)n[nH]c2=S)cc1 | inactive
CC1CCCC(C)N1C(=O)CSc1nnc(NC(=O)c2cccs2)s1 (stereo not drawn) | inactive
C=C(C)Cn1c(-c2cccs2)n[nH]c1=S | 5.07 µM
Cn1ccnc1SCC(=O)Nc1ccc2nc(SCC(=O)NC3CC3)sc2c1 | inactive
S=c1[nH]nc(-c2ccccc2)n1CC1CCCO1 (stereo not drawn) | inactive
O=c1c2ccccc2cnn1Cc1n[nH]c(=S)n1C1CC2CCC1C2 (stereo not drawn) | inactive
COc1ccccc1-c1n[nH]c(=S)n1Cc1ccco1 | inactive
O=C(O)c1c(C(=O)O)c(-c2ccc(Br)cc2)n2c1CSC2 | 4.78 µM
S=c1[nH]nc(-c2cccs2)n1Cc1ccccc1 | 4.09 µM
CCCn1c(C(C)C)n[nH]c1=S | inactive
Cc1cc(C)n(-c2nc(SCC(=O)O)c3c4c(sc3n2)COC(C)(C)C4)n1 | inactive
CCCC(=O)Nc1nnc(SCC(=O)NCc2cccs2)s1 | inactive
Cc1c(C)c2ccc(OCC(=O)N3CCC[C@@H]3C(=O)O)c(C)c2oc1=O | 6.07 µM
O=C(CSc1nnc(NC(=O)C2CCCCC2)s1)NCc1ccco1 | 6.64 µM
CC(C)(C)CC(=O)Nc1nnc(SCC(=O)NCc2cccs2)s1 | inactive
S=c1[nH]nc(-c2ccco2)n1Cc1ccccc1 | 6.48 µM
Cc1c(C)c2c(OCC(=O)N[C@@H](C)C(=O)O)cc3c(c2oc1=O)CCC(C)(C)O3 | 4.44 µM
Cc1nn(CCc2n[nH]c(=S)n2-c2cccc(Cl)c2)c(C)c1[N+](=O)[O-] | inactive
CCn1c(-c2nn(-c3ccccc3)ccc2=O)n[nH]c1=S | inactive
O=[N+]([O-])c1ccc(-c2ccccc2)c([As](=O)(O)O)c1 | 0.748 µM
